The supplement of paper PMC10307832

How the values were obtained:
Assay in all cases: relative viability (nuclei count vs DMSO), 5 days (fraction); higher = more cells survive
Vismodegib + Alpelisib = compound: CS(=O)(=O)c1ccc(C(=O)Nc2ccc(Cl)c(-c3ccccn3)c2)c(Cl)c1 [Vismodegib] + Cc1nc(NC(=O)N2CCC[C@H]2C(N)=O)sc1-c1ccnc(C(C)(C)C(F)(F)F)c1 [Alpelisib] (partner 2 µM)
Outline: (§1)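 After 5 days of treatment, lung cancer cells in 1536-well plates were fixed and stained in a single step (final 0.05% Triton X-100, 1% formaldehyde, 1 ug/ml Hoechst) and their nuclei counted on 4× images. Treatment had been applied by pin tool the day after seeding as one drug alone or as a fixed anchor-drug dose with five library-drug doses (not always all listed) in √10 steps. Relative viability is the nuclei count of treated wells divided by that of vehicle wells, and values are medians of duplicate plates.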

VE-821 + Trametinib = compound: CS(=O)(=O)c1ccc(-c2cnc(N)c(C(=O)Nc3ccccc3)n2)cc1 [VE-821] + CC(=O)Nc1cccc(-n2c(=O)n(C3CC3)c(=O)c3c(Nc4ccc(I)cc4F)n(C)c(=O)c(C)c32)c1 [Trametinib] (partner 0.02 µM)
Outline: as §1

Ruxolitinib + Phenformin = compound: N#CC[C@H](C1CCCC1)n1cc(-c2ncnc3[nH]ccc23)cn1 [Ruxolitinib] + N=C(N)NC(=N)NCCc1ccccc1 [Phenformin] (partner 250 µM)
Outline: as §1

VE-821 + Pictilisib = compound: CS(=O)(=O)c1ccc(-c2cnc(N)c(C(=O)Nc3ccccc3)n2)cc1 [VE-821] + CS(=O)(=O)N1CCN(Cc2cc3nc(-c4cccc5[nH]ncc45)nc(N4CCOCC4)c3s2)CC1 [Pictilisib] (partner 1 µM)
Outline: as §1

Cell Line | relative viability (Vismodegib + Alpelisib; first compound 0.08 µM) | relative viability (Vismodegib + Alpelisib; first compound 0.253 µM) | relative viability (Vismodegib + Alpelisib; first compound 0.8 µM) | relative viability (Vismodegib + Alpelisib; first compound 2.53 µM) | relative viability (Vismodegib + Alpelisib; first compound 8 µM) | relative viability (VE-821 + Trametinib; first compound 0.08 µM) | relative viability (VE-821 + Trametinib; first compound 0.253 µM) | relative viability (VE-821 + Trametinib; first compound 0.8 µM) | relative viability (VE-821 + Trametinib; first compound 2.53 µM) | relative viability (VE-821 + Trametinib; first compound 8 µM) | relative viability (Ruxolitinib + Phenformin; first compound 0.08 µM) | relative viability (Ruxolitinib + Phenformin; first compound 0.253 µM) | relative viability (Ruxolitinib + Phenformin; first compound 0.8 µM) | relative viability (Ruxolitinib + Phenformin; first compound 2.53 µM) | relative viability (Ruxolitinib + Phenformin; first compound 8 µM) | relative viability (VE-821 + Pictilisib; first compound 0.08 µM) | relative viability (VE-821 + Pictilisib; first compound 0.253 µM) | relative viability (VE-821 + Pictilisib; first compound 0.8 µM) | relative viability (VE-821 + Pictilisib; first compound 2.53 µM) | relative viability (VE-821 + Pictilisib; first compound 8 µM)
NCI-H2347 | 0.966 | 0.994 | 0.91 | 1.02 | 1.1 | 0.298 | 0.276 | 0.289 | 0.292 | 0.324 | 0.385 | 0.406 | 0.453 | 0.533 | 0.505 | 0.565 | 0.583 | 0.563 | 0.525 | 0.485
NCI-H2405 | – | 0.81 | 0.676 | 0.603 | 0.875 | 0.643 | 0.628 | 0.53 | 0.699 | 0.546 | – | 0.36 | 0.404 | 0.308 | 0.312 | 0.468 | 0.388 | 0.431 | 0.446 | 0.355
NCI-H3122 | 0.798 | 0.726 | 0.816 | 0.78 | 0.629 | 0.219 | 0.216 | 0.235 | 0.228 | 0.265 | – | 0.429 | 0.378 | 0.327 | 0.318 | 0.666 | 0.672 | 0.563 | 0.765 | 0.78
PC-3 [JPC-3] | 0.971 | 1.04 | 1.04 | 0.941 | 0.972 | 0.727 | 0.744 | 0.701 | 0.826 | 0.763 | 0.428 | 0.477 | 0.477 | 0.443 | 0.481 | 0.784 | 0.797 | 0.851 | 0.938 | 0.763
PC-14 | 0.884 | 0.888 | 1.03 | 0.907 | 0.926 | 0.966 | 0.689 | 0.656 | 0.63 | 0.429 | – | 0.436 | 0.518 | 0.566 | 0.604 | 0.91 | 0.734 | 0.708 | 0.759 | 0.74
RERF-LC-KJ | 0.789 | 0.748 | 0.909 | 0.748 | 0.773 | 0.935 | 0.788 | 0.704 | 0.81 | 0.69 | 0.349 | 0.418 | 0.426 | 0.42 | 0.332 | 0.496 | 0.498 | 0.463 | 0.547 | 0.482
SK-LU-1 | 1.07 | 0.987 | 1.07 | 0.894 | 1.06 | 0.495 | 0.53 | 0.387 | 0.547 | 0.291 | 0.551 | 0.529 | 0.637 | 0.433 | 0.422 | 0.602 | 0.557 | 0.621 | 0.432 | 0.316
SK-MES-1 | 0.851 | 0.956 | 0.802 | 0.827 | 0.837 | 0.609 | 0.516 | 0.462 | 0.471 | 0.455 | 0.708 | 0.641 | 0.663 | 0.593 | 0.495 | 0.4 | 0.389 | 0.423 | 0.337 | 0.372
SW 1573 | 0.7 | 0.691 | 0.717 | – | 0.754 | 0.53 | 0.627 | 0.574 | 0.547 | 0.378 | 0.419 | 0.324 | 0.417 | 0.308 | 0.369 | 0.625 | 0.531 | 0.541 | 0.569 | 0.47
